The assay concerns the target Nluc-H1R (Homo sapiens, UniProt P35367). The experiment in a line: NanoBRET competition binding assay (displacement of 1) on Nluc-H1R expressing HEK293T cells. The conditions noted are these: displacement of 1 (25 nM, KD = 8 nM), whole HEK293T cells, Cheng–Prusoff; for pKi: mean ± SEM, three experiments. (BRET reads energy transfer from a luciferase to a nearby fluorophore.)

Square brackets hold non-standard residues; d marks the D form. Peptide text beside a SMILES is read from it. * marks the point of attachment. Propanoyl(3-Pip(4-O-2-BnPh)) = O=C(CCN1CCC(Oc2ccccc2Cc2ccccc2)CC1)*

Sequence of Nluc-H1R (P35367 whole entry): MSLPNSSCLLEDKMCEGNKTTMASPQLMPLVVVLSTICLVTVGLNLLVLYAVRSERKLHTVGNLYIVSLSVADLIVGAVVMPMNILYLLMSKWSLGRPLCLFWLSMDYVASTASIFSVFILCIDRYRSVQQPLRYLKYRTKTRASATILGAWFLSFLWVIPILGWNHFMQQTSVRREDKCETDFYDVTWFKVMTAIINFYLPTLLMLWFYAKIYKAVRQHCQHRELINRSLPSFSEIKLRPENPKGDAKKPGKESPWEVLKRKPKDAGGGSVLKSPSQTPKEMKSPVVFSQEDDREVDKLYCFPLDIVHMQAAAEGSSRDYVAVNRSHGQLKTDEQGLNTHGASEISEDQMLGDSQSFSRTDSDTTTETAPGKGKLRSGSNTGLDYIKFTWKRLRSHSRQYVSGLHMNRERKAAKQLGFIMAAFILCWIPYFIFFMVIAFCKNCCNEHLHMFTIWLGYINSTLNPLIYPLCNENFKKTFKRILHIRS

By Ki is commonly meant the equilibrium dissociation constant of an inhibitor or competing ligand from its target. A word on the pKi: it is the negative decadic logarithm of the Ki, by convention in mol/L. A lower pKi goes with a large Ki. For `CC(C)[C@H](NC(=O)CCN1CCC(Oc2ccccc2Cc2ccccc2)CC1)C(=O)N[C@@H](Cc1ccccc1)C(=O)N[C@@H](C)C(=O)N[C@H](Cc1ccccc1)C(N)=O` [Compound 9c, (S)-N-((S)-1-(((S)-1-(((R)-1-Amino-1-oxo-3-phenylpropan-2-yl)amino)-1-oxopropan-2-yl)amino)-1-oxo-3-phenylpropan-2-yl)-2-(3-(4-(2-benzylphenoxy)piperidin-1-yl)-propanamido)-3-methylbutanamide] ({Propanoyl(3-Pip(4-O-2-BnPh))}-VFA[dF]-NH2), the Ki turned out to be 0.794 µM and the pKi is given as 6.10 ± 0.20.

`CC(C)[C@H](NC(=O)CCN1CCC(Oc2ccccc2Cc2ccccc2)CC1)C(=O)N[C@@H](Cc1ccc(O)cc1)C(=O)N[C@@H](C)C(=O)N[C@H](Cc1ccccc1)C(N)=O` [Compound 9d, (S)-N-((S)-1-(((S)-1-(((R)-1-Amino-1-oxo-3-phenylpropan-2-yl)amino)-1-oxopropan-2-yl)amino)-3-(4-hydroxyphenyl)-1-oxopropan-2-yl)-2-(3-(4-(2-benzylphenoxy)-piperidin-1-yl)propanamido)-3-methylbutanamide] ({Propanoyl(3-Pip(4-O-2-BnPh))}-VYA[dF]-NH2) yielded a Ki of 0.437 µM and a pKi of 6.36 ± 0.04.

For `CC(C)[C@H](NC(=O)CCN1CCC(Oc2ccccc2Cc2ccccc2)CC1)C(=O)N[C@@H](CO)C(=O)N[C@@H](C)C(=O)N[C@H](Cc1ccccc1)C(N)=O` [Compound 9e, (S)-N-((S)-1-(((S)-1-(((R)-1-Amino-1-oxo-3-phenylpropan-2-yl)amino)-1-oxopropan-2-yl)amino)-3-hydroxy-1-oxo-propan-2-yl)-2-(3-(4-(2-benzylphenoxy)piperidin-1-yl)-propanamido)-3-methylbutanamide] ({Propanoyl(3-Pip(4-O-2-BnPh))}-VSA[dF]-NH2), the Ki was 0.151 µM and the pKi is reported as 6.82 ± 0.06.

`CC(C)[C@H](NC(=O)CCN1CCC(Oc2ccccc2Cc2ccccc2)CC1)C(=O)N[C@@H](CC(N)=O)C(=O)N[C@@H](C)C(=O)N[C@H](Cc1ccccc1)C(N)=O` [Compound 9f, (S)-N1-((S)-1-(((R)-1-Amino-1-oxo-3-phenylpropan-2-yl)amino)-1-oxopropan-2-yl)-2-((S)-2-(3-(4-(2-benzylphenoxy)piperidin-1-yl)propanamido)-3-methylbutanamido)succinamide] ({Propanoyl(3-Pip(4-O-2-BnPh))}-VNA[dF]-NH2): the affinity, expressed as Ki, was 0.832 µM and the pKi is listed as 6.08 ± 0.03.

In turn, `CC(C)[C@H](NC(=O)CCN1CCC(Oc2ccccc2Cc2ccccc2)CC1)C(=O)N[C@@H](Cc1cnc[nH]1)C(=O)N[C@@H](C)C(=O)N[C@H](Cc1ccccc1)C(N)=O` [Compound 9g, (S)-N-((S)-1-(((S)-1-(((R)-1-Amino-1-oxo-3-phenylpropan-2-yl)amino)-1-oxopropan-2-yl)amino)-3-(1H-imidazol-5-yl)-1-oxopropan-2-yl)-2-(3-(4-(2-benzylphenoxy)piperidin-1-yl)propanamido)-3-methylbutanamide] ({Propanoyl(3-Pip(4-O-2-BnPh))}-VHA[dF]-NH2) displayed an inhibition constant Ki of 0.692 µM and a pKi of 6.16 ± 0.06.

In turn, `CC(C)[C@H](NC(=O)CCN1CCC(Oc2ccccc2Cc2ccccc2)CC1)C(=O)N[C@@H](CCCCN)C(=O)N[C@@H](C)C(=O)N[C@H](Cc1ccccc1)C(N)=O` [Compound 9h, (S)-6-Amino-N-((S)-1-(((R)-1-amino-1-oxo-3-phenylpropan-2-yl)amino)-1-oxopropan-2-yl)-2-((S)-2-(3-(4-(2-benzylphenoxy)piperidin-1-yl)propanamido)-3-methylbutanamido)hexanamide] ({Propanoyl(3-Pip(4-O-2-BnPh))}-VKA[dF]-NH2) displayed a Ki of 2.4 µM and a pKi of 5.62 ± 0.06.

Consider `CC(C)[C@H](NC(=O)CCN1CCC(Oc2ccccc2Cc2ccccc2)CC1)C(=O)N[C@@H](CC(=O)O)C(=O)N[C@@H](C)C(=O)N[C@H](Cc1ccccc1)C(N)=O` [Compound 9i, (S)-4-(((S)-1-(((R)-1-Amino-1-oxo-3-phenylpropan-2-yl)amino)-1-oxopropan-2-yl)amino)-3-((S)-2-(3-(4-(2-benzylphenoxy)piperidin-1-yl)propanamido)-3-methylbutanamido)-4-oxobutanoic Acid] ({Propanoyl(3-Pip(4-O-2-BnPh))}-VDA[dF]-NH2), for which affinity was put at a Ki of 0.55 µM and the pKi was determined as 6.26 ± 0.14.

As for `CC(C)[C@H](NC(=O)CCN1CCC(Oc2ccccc2Cc2ccccc2)CC1)C(=O)N[C@@H](CO)C(=O)NCC(=O)N[C@H](Cc1ccccc1)C(N)=O` [Compound 10a, (S)-N-((S)-1-((2-(((R)-1-Amino-1-oxo-3-phenylpropan-2-yl)amino)-2-oxoethyl)amino)-3-hydroxy-1-oxopropan-2-yl)-2-(3-(4-(2-benzylphenoxy)piperidin-1-yl)propanamido)-3-methylbutanamide] ({Propanoyl(3-Pip(4-O-2-BnPh))}-VSG[dF]-NH2), the affinity corresponds to a Ki of 0.158 µM and the pKi stood at 6.80 ± 0.05.

Turning to `CC(C)[C@H](NC(=O)CCN1CCC(Oc2ccccc2Cc2ccccc2)CC1)C(=O)N[C@@H](CO)C(=O)N[C@H](C(=O)N[C@H](Cc1ccccc1)C(N)=O)C(C)C` [Compound 10b, (S)-N-((R)-1-Amino-1-oxo-3-phenylpropan-2-yl)-2-((S)-2-((S)-2-(3-(4-(2-benzylphenoxy)piperidin-1-yl)propanamido)-3-methylbutanamido)-3-hydroxypropanamido)-3-methylbutanamide] ({Propanoyl(3-Pip(4-O-2-BnPh))}-VSV[dF]-NH2), the affinity, expressed as Ki, was 0.309 µM and the negative-log Ki (pKi) turned out to be 6.51 ± 0.07.

Turning to `CC(C)[C@H](NC(=O)CCN1CCC(Oc2ccccc2Cc2ccccc2)CC1)C(=O)N[C@@H](CO)C(=O)N[C@@H](Cc1ccccc1)C(=O)N[C@H](Cc1ccccc1)C(N)=O` [Compound 10c, (S)-N-((S)-1-(((S)-1-(((R)-1-Amino-1-oxo-3-phenylpropan-2-yl)amino)-1-oxo-3-phenylpropan-2-yl)amino)-3-hydroxy-1-oxopropan-2-yl)-2-(3-(4-(2-benzylphenoxy)piperidin-1-yl)propanamido)-3-methylbutanamide] ({Propanoyl(3-Pip(4-O-2-BnPh))}-VSF[dF]-NH2), the affinity corresponds to a Ki of 0.11 µM and the pKi stood at 6.96 ± 0.02.

`CC(C)[C@H](NC(=O)CCN1CCC(Oc2ccccc2Cc2ccccc2)CC1)C(=O)N[C@@H](CO)C(=O)N[C@@H](Cc1ccc(O)cc1)C(=O)N[C@H](Cc1ccccc1)C(N)=O` [Compound 10d, (S)-N-((S)-1-(((S)-1-(((R)-1-Amino-1-oxo-3-phenylpropan-2-yl)amino)-3-(4-hydroxyphenyl)-1-oxopropan-2-yl)amino)-3-hydroxy-1-oxopropan-2-yl)-2-(3-(4-(2-benzylphenoxy)piperidin-1-yl)propanamido)-3-methylbutanamide] ({Propanoyl(3-Pip(4-O-2-BnPh))}-VSY[dF]-NH2) registered a Ki of 0.095 µM and a pKi of 7.02 ± 0.08.
